Assay results from patent EP1075256B1, “ARYLHYDROCARBON RECEPTOR LIGAND ANTAGONISTS” (priority 1998, dated 1999).

How the values were obtained:
[1] = tested on: élément de réponse à la dioxine; assay: CAT reporter gene under control of a dioxin response element (DRE), stably transfected T-47D cells; type: cell-based; conditions: figure 1A, 10^-6 M de Resvératrol
Excerpt: Les inventeurs ont entrepris d'identifier de nouveaux ligands du récepteur AhR. Pour ce faire, ils ont transfecté de façon stable une lignée de cellules de cancer du sein, T-47D, avec un gène rapporteur (la trans-acétylase du chloramphénicol, ou CAT) placé sous le contrôle d'un élément de réponse à la dioxine ou DRE. La lignée T-47D est connue pour contenir un taux élevé de récepteur AhR (170 femtomoles/mg protéines).
On transfecte de manière stable la lignée T-47D de cellules de cancer du sein avec un gène rapporteur, la trans-acétylase du chloramphénicol, CAT en abrégé, placé sous le contrôle d'un élément de réponse à la dioxine.
On constate que l'inhibition observée est dose-dépendante.

CYP1A1 = assay: Induction of Cyp1A1 protein by dioxin in T-47D cells (Western blot); type: cell-based; conditions: for effets agonistes / antagonistes: 10^-5M
Protocol: Les cellules sont collectées et lavées dans le PBS, puis lysées par fusion-congélation répétée en conditions isotoniques. 75 µg de protéines sont analysées par électrophorèse en gel de polyacrylamide en conditions dénaturantes. Le gel est transféré sur une membrane de nylon. La membrane est saturée avec 5 % de lait écrémé et incubée avec un anticorps polyclonal de lapin (Daiichi Pure Chemicals Co, Japan) contre Cyp1A1. Les immuncomplexes sont détectés par chimioluminescence avec le kit Renaissance (DuPont). La figure 2 correspond à la photo du Western blot. La flèche montre la bande spécifique de Cyp1A1, les astérisques signalent des bandes non-spécifiques.

récepteur AhR = biological target: T1, récepteur AhR (Oryctolagus cuniculus, UniProt O02747); assay: Competition with tritiated dioxin for binding to the AhR receptor in rabbit liver cytosol; parameters: species or system lapin; conditions: for Kd: displacement of labelled dioxin, read-out: Kd apparent (converted)
T1 construct: On a utilisé un cytosol de foie de lapin pour ces études de compétition; from tissue; host or cells: rabbit liver cytosol
T1 sequence (O02747 1-847): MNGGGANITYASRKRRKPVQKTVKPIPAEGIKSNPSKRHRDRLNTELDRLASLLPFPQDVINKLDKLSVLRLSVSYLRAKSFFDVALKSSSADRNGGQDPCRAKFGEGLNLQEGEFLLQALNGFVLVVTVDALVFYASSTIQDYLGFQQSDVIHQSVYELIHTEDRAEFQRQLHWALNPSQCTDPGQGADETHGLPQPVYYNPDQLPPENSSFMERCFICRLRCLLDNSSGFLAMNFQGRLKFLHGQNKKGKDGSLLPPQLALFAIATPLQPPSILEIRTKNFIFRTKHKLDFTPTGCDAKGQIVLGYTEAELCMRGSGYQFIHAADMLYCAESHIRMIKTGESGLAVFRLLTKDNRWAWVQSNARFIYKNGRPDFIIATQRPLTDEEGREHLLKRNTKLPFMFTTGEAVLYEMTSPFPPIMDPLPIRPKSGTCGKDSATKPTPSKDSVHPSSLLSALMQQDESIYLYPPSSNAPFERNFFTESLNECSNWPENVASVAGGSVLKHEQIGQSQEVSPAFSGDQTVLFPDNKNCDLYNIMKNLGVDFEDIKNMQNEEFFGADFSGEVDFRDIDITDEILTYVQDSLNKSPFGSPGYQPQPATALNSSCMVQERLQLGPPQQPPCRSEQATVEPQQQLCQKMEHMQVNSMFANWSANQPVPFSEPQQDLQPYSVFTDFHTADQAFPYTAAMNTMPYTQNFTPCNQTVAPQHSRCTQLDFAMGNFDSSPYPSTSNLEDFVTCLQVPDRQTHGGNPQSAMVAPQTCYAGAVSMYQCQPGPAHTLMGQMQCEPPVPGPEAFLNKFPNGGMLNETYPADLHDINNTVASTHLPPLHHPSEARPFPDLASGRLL

[2] = tested on: élément de réponse à l'estradiol (ERE) du gène de la vitellogénine; assay: Transient CAT reporter under estradiol response element (ERE) in T-47D cells; type: cell-based
Excerpt: (§1) On a transfecté de façon transitoire les cellules T-47D avec différentes constructions CAT sous contrôle de l'élément de réponse à l'estradiol (ERE) du gène de la vitellogénine ou celui, plus faible, du gène du récepteur de la progestérone, ainsi que des éléments de réponse à la progestérone (PRE) et aux androgènes (ARE) du virus murin MMTV et d'un élément de réponse à la vitamine D (VDRE) synthétique.

[3] = tested on: éléments de réponse à la progestérone (PRE); assay: Transient CAT reporter under progesterone response element (PRE) in T-47D cells; type: cell-based
Excerpt: as §1

[4] = tested on: éléments de réponse aux androgènes (ARE); assay: Transient CAT reporter under androgen response element (ARE) in T-47D cells; type: cell-based
Excerpt: as §1

[5] = tested on: élément de réponse à la vitamine D (VDRE); assay: Transient CAT reporter under vitamin D response element (VDRE) in T-47D cells; type: cell-based
Excerpt: as §1

[6] = tested on: NAD(P)H quinone réductase; assay: NAD(P)H quinone reductase (NQOR) activity in T-47D cells; type: cell-based; conditions: 10^-6 M, dioxine 10^-9 M, 72 h
Excerpt: L'activité NQOR correspondante exprimée en nanomoles de cytochrome c réduit, par mg de protéines, par min, est donnée sur la figure 5.

[7] = tested on: promoteur de la séquence répétée (LTR) de VIH-1; assay: HIV-1 LTR promoter CAT construct (-452/+77) transfected in T-47D cells; type: cell-based; conditions: dioxine 10^-9 M
Excerpt: On a transfecté les cellules T-47D avec une construction CAT contenant ce promoteur (-452/+77).

cyp 1A1 = assay: In vivo induction of cyp 1A1 in rats by BaP/DMBA (immunoblot of lung and kidney); parameters: species or system rats Sprague-Dawley; conditions: equal concentration of substances (1 mg/kg BaP/DMBA plus 1 mg/kg resvératrol)
Protocol: Des rats Sprague-Dawley femelle ont été traités par une combinaison de Benzol [a]pyrène et de DMBA (diméthylbenzanthracène), deux ligands AhR présents dans la fumée de cigarette. Des expériences préliminaires ont montré que cyp 1A1 était induit à partir de 1 mg/kg des deux ligands administrés ensemble. […] Les animaux ont été sacrifiés et les organes prélevés. Des extraits cellulaires totaux ont été préparés et analysés par immunoblot pour détecter l'expression de cyp 1A1 dans ces tissus.

`Oc1ccc(/C=C/c2cc(O)cc(O)c2)cc1` [Resvératrol, trans-resvératrol] was tested, and the “effet sur l'induction de CAT par TCDD” value [1] was “effet inhibiteur”, the “effets agonistes / antagonistes” value (CYP1A1) was “pur antagoniste” and the inhibition at 1 µM (CYP1A1; Homo sapiens, T47D, 48 h, read-out: inhibition de l'induction de la protéine CYP1A1) was roughly 60%. The “excès nécessaire pour observer l'inhibition ex vivo” value (CYP1A1; ex vivo) was 5000 fois, the “effet inhibiteur compared with α-naphthoflavone” value (CYP1A1; induction of CYP1A1 by TCDD, T-47D) was “légérement inférieur” and the “affinité compared with indole-3-carbinol” value (récepteur AhR) was “affinité plus forte”. For the same compound, the “effet estrogénique sur l'ERE, fraction of the effect of estradiol” value ([2]; T-47D, CAT) was 1/500.000, the “effet estrogénique, fraction of the effect of 10^-10 M estradiol” value ([2]; from 10^-5 M Resvératrol) was 1/5 and the “effet sur PRE” value [3] was “aucun effet”. The “effet sur ARE” value [4] was “aucun effet”, the “effet sur VDRE” value [5] was “aucun effet” and the “répression de l'induction indirecte des enzymes de phase II (NAD(P)H quinone réductase) provoquée par la dioxine” value [6] was “ne répriment l'induction indirecte”. For the same compound, the “suppression de l'induction du promoteur de VIH par la dioxine” value ([7]; Resvératrol 10^-6 M) was “totalement supprimée” and the “suppression de l'induction de cyp 1A1 in vivo” value (cyp 1A1) was “totalement supprimée”.

`Clc1cc2c(cc1Cl)Oc1cc(Cl)c(Cl)cc1O2` [TCDD, 2,3,7,8-tétrachlorodibenzo (p)dioxine, reference compound] showed a Kd (récepteur AhR) of 3 nM and a fold induction at 0.001 µM ([7]; Homo sapiens, T47D, T-47D, read-out: induction du promoteur de VIH (facteur)) of 3.

For `O=c1cc(-c2ccccc2)oc2c1ccc1ccccc12` [α-NF, alpha-7,8-benzoflavone, reference compound], the “effets agonistes / antagonistes” value (CYP1A1) was “effets agonistes autant qu'antagonistes”, the Kd (récepteur AhR) was 3 nM and the “répression de l'induction indirecte des enzymes de phase II (NAD(P)H quinone réductase) provoquée par la dioxine” value [6] was “ne répriment l'induction indirecte”.
